Assay results taken from EP1147102B1, “HETEROARYL ACETYLENIC SULFONAMIDE AND PHOSPHINIC ACID AMIDE HYDROXAMIC ACID TACE INHIBITORS” (Wyeth Holdings Corporation, priority 1999, dated 2000).

Tested on: THP-1 cells
Assay: Human monocytic THP-1 cell differentiation assay for soluble proteins (THP soluble protein assay)
Assay type: cell-based
Conditions: LPS-stimulated THP-1 cells
Source text: Mitogenic stimulation of THP-1 cells cause differentiation into macrophage like cells with concomitant secretion of tumor necrosis factor (TNF-α) and TNF receptor (TNF-R p75/80 and TNF-R p55/60) and Interleukin-8 (IL-8), among other proteins. In addition, non-stimulated THP-1 cells shed both the p75/80 and the p55/60 receptors over time. The release of membrane bound TNF-α and possibly TNF-R p75/80 and TNF-R p55/60, but not IL-8, is mediated by an enzyme called TNF-α converting enzyme or TACE.
THP-1 cells (from ATCC) are a human monocytic cell line which were obtained from the peripheral blood of a person with acute monocytic leukemia. […]
To perform an assay, the THP-1 cells are co-incubated in a 24 well plate with […] of a 24 mg/ml stock of Lipopolysacharide (LPS) (Calbiochem Lot# B13189) at 37°C in 5% CO2 at a concentration of 1.091 x 10^6 cells/ml (1.1 ml/well) for a total of 24 hours. […] Compounds can be evaluated for their effect on basal (non-stimulated) shedding of the receptors by replacing the LPS with […] of THP-1 media. […]
In addition, at the 24 hours timepoint, and the cells for each treatment group are collected by resuspension in 500 µl/well of THP-1 media and transferred into a FACS tube. […] The samples are run on a Becton Dickinson FaxCaliber FLOW cytometry machine and the amount of dye taken up by each cell is measured in the high red wavelength (FL3). […]

SMILES: CC#CCOc1ccc(S(=O)(=O)N(C)c2c(C(=O)NO)cc(OC)nc2OC)cc1 [Example 33, 3-[Methyl-(4-but-2-ynyloxy-benzenesulfonyl)-amino]-N-hydroxy-2,6-dimethoxyisonicotinamide]
- inhibition at 3 µM: 31%
